Target: T1, system xc− (obligate cystine-glutamate transporter) (Homo sapiens, UniProt Q9UPY5)
T1 sequence (Q9UPY5 1-501): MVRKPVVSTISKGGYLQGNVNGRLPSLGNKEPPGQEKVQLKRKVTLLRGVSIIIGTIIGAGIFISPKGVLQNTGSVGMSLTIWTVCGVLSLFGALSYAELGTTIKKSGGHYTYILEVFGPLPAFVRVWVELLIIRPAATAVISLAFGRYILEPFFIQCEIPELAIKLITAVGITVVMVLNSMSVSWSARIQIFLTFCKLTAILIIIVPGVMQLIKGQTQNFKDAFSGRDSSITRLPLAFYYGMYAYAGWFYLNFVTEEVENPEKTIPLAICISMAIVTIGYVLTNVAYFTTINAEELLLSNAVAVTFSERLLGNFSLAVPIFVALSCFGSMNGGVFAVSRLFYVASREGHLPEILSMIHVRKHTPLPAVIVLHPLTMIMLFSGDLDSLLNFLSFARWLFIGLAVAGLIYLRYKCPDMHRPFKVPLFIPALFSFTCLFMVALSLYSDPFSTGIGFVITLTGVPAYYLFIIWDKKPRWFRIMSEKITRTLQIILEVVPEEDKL
T1 sequence (P08195 2-529 partner): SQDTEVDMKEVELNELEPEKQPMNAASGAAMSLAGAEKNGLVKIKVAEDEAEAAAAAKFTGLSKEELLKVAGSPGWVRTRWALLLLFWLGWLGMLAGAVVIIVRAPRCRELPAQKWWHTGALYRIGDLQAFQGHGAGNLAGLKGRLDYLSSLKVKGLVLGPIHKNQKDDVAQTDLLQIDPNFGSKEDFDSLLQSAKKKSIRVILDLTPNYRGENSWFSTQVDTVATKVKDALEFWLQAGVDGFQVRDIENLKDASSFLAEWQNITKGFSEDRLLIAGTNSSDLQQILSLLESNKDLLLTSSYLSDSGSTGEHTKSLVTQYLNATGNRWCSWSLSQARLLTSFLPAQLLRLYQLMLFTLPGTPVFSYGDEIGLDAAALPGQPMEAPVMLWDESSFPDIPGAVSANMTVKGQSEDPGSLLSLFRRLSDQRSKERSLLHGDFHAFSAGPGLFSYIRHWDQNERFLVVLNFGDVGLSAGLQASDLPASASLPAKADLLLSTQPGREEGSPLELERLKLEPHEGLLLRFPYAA
Assay: inhibition of 3H-L-glutamate uptake
Assay type: cell-based
Conditions: SNB-19, read-out: Uptake ^a Sxc^-

`N[C@@H](CSSC[C@H](N)C(=O)O)C(=O)O` [L-Cystine] showed an activity at 500 µM of 22 ± 3%.

From paper PMC3159025 (2011)
